How the values were obtained:
[1] = Relaxivity measurements at 1.41 T in human plasma; type: physicochemical; conditions: 37° C., normalized to Gd
Method in brief: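 T1 determined by inversion recovery (8 inversion-time steps) and T2 by CPMG sequence, both with relaxation delay ≥5×T1. Each relaxivity used three Gd concentrations between 0.05 and 2 mM. Relaxivities were derived from relaxation rates measured in water and plasma.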

[2] = target: T1, OATP1B3 (Homo sapiens, UniProt Q9NPD5); test: Uptake into stable transfected OATP1B3 HEK 293 cells; type: cell-based; conditions: for Uptake into OATP1B3-HEK 293 cells: 40 min incubation, relative to RC1 (Gd-EOB-DTPA); for Inhibition Rifampicine: uptake into OATP1B3-HEK 293 cells
T1 sequence (Q9NPD5 1-702): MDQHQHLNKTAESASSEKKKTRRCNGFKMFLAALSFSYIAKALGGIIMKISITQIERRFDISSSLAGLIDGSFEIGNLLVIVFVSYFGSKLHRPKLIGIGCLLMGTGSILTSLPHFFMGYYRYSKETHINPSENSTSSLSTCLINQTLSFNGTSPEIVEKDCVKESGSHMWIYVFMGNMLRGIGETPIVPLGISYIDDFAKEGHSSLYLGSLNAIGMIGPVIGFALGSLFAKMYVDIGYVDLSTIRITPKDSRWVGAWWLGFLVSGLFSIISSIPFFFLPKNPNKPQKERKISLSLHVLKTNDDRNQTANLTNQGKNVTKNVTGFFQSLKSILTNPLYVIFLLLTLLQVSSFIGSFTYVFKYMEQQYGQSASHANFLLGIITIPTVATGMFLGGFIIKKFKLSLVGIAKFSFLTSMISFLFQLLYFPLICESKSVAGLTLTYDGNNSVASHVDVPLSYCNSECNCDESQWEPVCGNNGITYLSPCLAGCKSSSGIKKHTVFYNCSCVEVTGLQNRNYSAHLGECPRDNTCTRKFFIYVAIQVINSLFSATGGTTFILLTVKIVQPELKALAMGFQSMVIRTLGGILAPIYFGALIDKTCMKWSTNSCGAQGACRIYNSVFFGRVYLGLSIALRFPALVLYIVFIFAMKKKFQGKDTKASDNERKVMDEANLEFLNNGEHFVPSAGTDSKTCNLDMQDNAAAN
Method in brief: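 HEK 293 cells stably transfected with human OATP1B3 were incubated for 40 min with test items at 100 μM final in transport buffer, in triplicate, then washed with cold PBS. Gadoxetate (Gd-EOB-DTPA) served as the reference standard on the same plate.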

[3] = test system: plasma proteins; test: Plasma protein binding, equilibrium dialysis, dog; type: in vitro ADME
From the text: The binding of Example 1 and 15 to plasma proteins of different species (human, dog, monkey, rabbit, mouse and rat) was investigated in vitro by using equilibrium dialysis in reusable 96-well Micro-Equilibrium Dialysis Devices (ht dialysis) (Banker M J et al. J Pharm Sci. 2003 May; 92 (5): 967-74).

[4] = In vivo pharmacokinetics following i.v. administration in rat
Description: Pharmacokinetic parameters of Example 1 and 15 and were determined in male and female rats (Han-Wistar, n=4). […] The samples were digested using strong acidic and oxidizing conditions at elevated temperature following dilution in 1% nitric acid to bring the samples in the quantification range of the method. The lower limit of quantitation amounts to 1 nmol/L for all elements and the upper limit to 1000 nmol/L in the diluted sample.
The fit of the obtained data to a three-compartment model (Phoenix, WinNonlin 6.4, 3-compartment mode) yielded the pharmacokinetic parameters which are shown in Table 8.

[5] = test system: cryopreserved human hepatocytes; test: In vitro metabolism in cryopreserved human hepatocytes; type: in vitro ADME; conditions: 5 μM, incubation time of 4 h, LC-MS
Description: (§1) The in vitro metabolism was investigated in cryopreserved human and rat hepatocytes (Li A P et al. Biomark Med. 2014; 8 (2): 173-83). Cryopreserved human (WSS) and rat hepatocytes (Wistar rat, RWH137, male) were incubated with the test compound (incubation concentration: 5 μM). The amount of remaining compound was related to the initial amount (0 mins). The cells were removed from the liquid nitrogen. The vial was immersed in the 37° C. water bath and shaken gently (by hand) until most of the ice was melted (approx. 90 sec.). The cell suspensions were transferred e.g. into a 50 ml-centrifuge tube and 12 ml of 4° C.-cold buffer (e.g. Krebs-Henseleit or Williams Medium E) were added. The cell suspension was centrifuged at 50×g for 5 mins. The buffer was aspirated, and the cells resuspended in 5 ml of fresh warm buffer. An aliquot of 50 μl was mixed with 200 μl trypan blue to determine the cell density and cell viability. The cell suspension was adjusted to a final concentration of 0.8 Mio hepatocytes per mL. The incubations were performed in 96 well plates (1.2 ml volume, negative control without cells). The 0 min samples were stopped immediately by adding 250 μl of ice-cold methanol. All other samples are shaken on an Heidolph®-rotor during incubation in a 37° C. incubator for the indicated period of 4 hours. Aliquots of the samples were used for analysis. All samples were analyzed using LC-MS at 0 h, 1 h, 2 h and 4 h (exemplary LC-MS: Accucore C-18 column, 30° C., 0.35 mL/min flow rate, solvent A: 10 mM Ammonium formate+5% MeCN, pH4 and solvent B: MeCN+0.1% formic acid; […] injection volume, gradient: 90% A, 10% B, 5 min 70% A and 30% B, 8 min 0% A and 100% B).

[6] = test system: cryopreserved rat hepatocytes; test: In vitro metabolism in cryopreserved rat hepatocytes; type: in vitro ADME; conditions: 5 μM, incubation time of 4 h, LC-MS
Description: as §1

[7] = Partition coefficient (log P butanol/buffer); type: physicochemical; conditions: 1-butanol / 50 mM Tris-HCl, pH 7.4, room temperature
[8] = test system: freshly isolated rat hepatocytes; test: Uptake into freshly isolated rat hepatocytes; conditions: for Uptake rat hepatocytes: 100 μmol Gd/L, 10 min, 37° C., relative to RC1 (Gd-EOB-DTPA); for Inhibition Rifampicine: rat hepatocyte uptake, test item and Rifampicine 1:1, each 100 μM

Row | Compound | r1 human plasma [1] | Uptake into OATP1B3-HEK 293 cells [2] | Inhibition Rifampicine [2] | Fraction unbound fu [3] | Clplasma Plasma clearance ([4]; dose 25 μmol/kg bw) | Vss Volume of distribution at steady state ([4]; dose 25 μmol/kg bw) | t½ α Half-life, compartment V1 ([4]; dose 25 μmol/kg bw) | t½ β Half-life, compartment V2 ([4]; dose 25 μmol/kg bw) | t½ γ Half-life, compartment V3 ([4]; dose 25 μmol/kg bw) | Metabolites detected [5] | Metabolites detected [6] | Log P (partition coefficient butanol/buffer) [7] | Uptake rat hepatocytes [8] | Inhibition Rifampicine [8] | further results
1 | CCOc1ccc(CCOCC(C(=O)O)N2CCN(CC(=O)[O-])CCN(CC(=O)[O-])CCN(CC(=O)[O-])CC2)cc1.[Gd+3] (stereo not shown) [Example 1, gadolinium 2,2′,2″-(10-{1-carboxy-2-[2-(4-ethoxyphenyl)ethoxy]ethyl}-1,4,7,10-tetraazacyclododecane-1,4,7-triyl)triacetate] | 6.5 L/mmol/s | 24 % of RC1 | 97 % inhibition | 96% | 26.7 mL/min/kg | 0.4 L/kg | 1.8 min | 13 min | 114 min | No metabolites were detected | No metabolites were detected | −0.98 | 29 % of RC1 | 93 % inhibition | AUC∞ Area under the curve ([4]; dose 25 μmol/kg bw): 16 µM·h; AUC∞ Area under the curve ([4]; dose 250 μmol/kg bw): 315 µM·h; Clplasma Plasma clearance ([4]; dose 250 μmol/kg bw): 13 mL/min/kg; Vss Volume of distribution at steady state ([4]; dose 250 μmol/kg bw): 0.2 L/kg; t½ α Half-life, compartment V1 ([4]; dose 250 μmol/kg bw): 3 min; t½ β Half-life, compartment V2 ([4]; dose 250 μmol/kg bw): 11 min; t½ γ Half-life, compartment V3 ([4]; dose 250 μmol/kg bw): 396 min
2 | CCOCCOCCOc1ccc(CC(C(=O)O)N2CCN(CC(=O)[O-])CCN(CC(=O)[O-])CCN(CC(=O)[O-])CC2)cc1.[Gd+3] (stereo not shown) [Example 2, gadolinium 2,2′,2″-{10-[1-carboxy-2-{4-[2-(2-ethoxyethoxy)ethoxy]phenyl}ethyl]-1,4,7,10-tetraazacyclododecane-1,4,7-triyl}triacetate] | 6.2 L/mmol/s | 56 % of RC1 | 80 % inhibition | >95% | – | – | – | – | – | No metabolites were detected | No metabolites were detected | −1.63 | 52 % of RC1 | 85 % inhibition | –
3 | CCOCCOCCOc1ccc(CCC[C@@H](C(=O)O)N2CCN([C@@H](CO)C(=O)[O-])CCN([C@@H](CO)C(=O)[O-])CCN([C@@H](CO)C(=O)[O-])CC2)cc1.[Gd+3] [Example 15, gadolinium (2S,2′S,2″S)-2,2′,2″-{10-[(1S)-1-carboxy-4-{4-[2-(2-ethoxyethoxy)ethoxy]phenyl}butyl]-1,4,7,10-tetraazacyclododecane-1,4,7-triyl}tris(3-hydroxypropanoate)] | 8.7 L/mmol/s | – | 98 % inhibition | 91% | 45 mL/min/kg | 0.4 L/kg | 3 min | 12 min | 588 min | No metabolites were detected | No metabolites were detected | −1.00 | 109 % of RC1 | 94 % inhibition | AUCnorm Area under the curve ([4]; dose 25 μmol/kg bw): 0.38 kg·h/L
4 | CCOc1ccc(CC(CN(CCN(CC(=O)[O-])CC(=O)[O-])CC(=O)[O-])N(CC(=O)[O-])CC(=O)[O-])cc1.[Gd+3].[Na+].[Na+] (stereo not shown) [RC1, gadoxetate disodium, reference compound] | – | 100 % of RC1 | 99 % inhibition | – | – | – | – | – | – | – | – | −2.12 | 100 % of RC1 | 97 % inhibition | AUCnorm Area under the curve ([4]; dose 100 μmol/kg bw): 0.40 kg·h/L; Clplasma Plasma clearance ([4]; dose 100 μmol/kg bw): 40 mL/min/kg; Vss Volume of distribution at steady state ([4]; dose 100 μmol/kg bw): 0.9 L/kg; t½ α Half-life, compartment V1 ([4]; dose 100 μmol/kg bw): 2 min; t½ β Half-life, compartment V2 ([4]; dose 100 μmol/kg bw): 8 min; t½ γ Half-life, compartment V3 ([4]; dose 100 μmol/kg bw): 390 min
